Measured values from paper PMC5888952 (Toxicological Sciences, 2018).

Tests used:
[1] = tested on: cryopreserved primary human hepatocytes (PHH) in 2Dsw culture; assay: Repeated-dose cytotoxicity
[2] = tested on: cryopreserved primary human hepatocytes (PHH) in 3D spheroid culture; assay: Repeated-dose cytotoxicity; type: cell-based
[3] = after long-term exposure, chosen treatment regimen

## COc1ccccc1Oc1c(NS(=O)(=O)c2ccc(C(C)(C)C)cc2)nc(-c2ncccn2)nc1OCCO [bosentan]
[1]; after 7 days (3 treatments)
  sensitivity of PHH in 2Dsw compared with 3D spheroids: higher
[1]; at 14 days (6 treatments)
  sensitivity of PHH in 2Dsw compared with 3D spheroids: equal sensitivity

## O=c1[nH]c(=O)n([C@@H]2O[C@H](CO)[C@@H](O)[C@@H]2F)cc1I [fialuridine]
[1]; 2Dsw culture, any of the 3 PHH donors, up to 14 days repeated exposure
  EC50 (50% reduction in viability, ATP): could not be attained
[1]; [3]
  sensitivity of PHH in 2Dsw compared with 3D spheroids: substantially lower sensitivities

## CCc1ccc(CCOc2ccc(CC3SC(=O)NC3=O)cc2)nc1 (stereo not shown) [pioglitazone]
[2]; 3D spheroid culture, up to 14 days
  toxicity (ATP viability): non-toxic
[1]; 2Dsw culture, up to 14 days
  toxicity (ATP viability): non-toxic

## O=C(O)Cc1ccccc1Nc1c(Cl)cccc1Cl [diclofenac]
[1]; [3]
  sensitivity of PHH in 2Dsw compared with 3D spheroids: substantially lower sensitivities

## Cc1c(C)c2c(c(C)c1O)CCC(C)(COc1ccc(CC3SC(=O)NC3=O)cc1)O2 (stereo not shown) [troglitazone]
[2]; 3D spheroids, after 72 hours (single treatment), 3 donors tested
  donors in which toxicity was identified at relevant concentrations: all 3 donors
[1]; 2Dsw culture, 3 donors tested
  donors in which toxicity was indicated: 1 of the 3 donors
[1]; [3]
  sensitivity of PHH in 2Dsw compared with 3D spheroids: substantially lower sensitivities
